This note sets out measurements from paper PMC4872110 (Nucleic Acids Research, 2016).

The target in data set [1] is T1, SsTsr3 (Saccharolobus solfataricus, UniProt Q9UWV6).
T1 sequence (Q9UWV6 1-166): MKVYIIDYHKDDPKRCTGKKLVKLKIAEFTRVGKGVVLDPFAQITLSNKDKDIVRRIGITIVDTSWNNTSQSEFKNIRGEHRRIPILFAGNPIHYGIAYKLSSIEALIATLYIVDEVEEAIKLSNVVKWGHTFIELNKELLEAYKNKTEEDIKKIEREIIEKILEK
The data set is described as follows: tryptophan fluorescence quenching. Format: binding.

The target in a further data set is VdTsr3 (Vulcanisaeta distributa, UniProt E1QU22). The settings on record: co-purified endogenous E. coli SAM.
For data set [2], the target named is SsTsr3 (Saccharolobus solfataricus, UniProt Q9UWV6, T17A). The experiment in a line: biochemical.
In data set [3] the target is SsTsr3 (Saccharolobus solfataricus, UniProt Q9UWV6, D63A). The experiment in a line: biochemical.
Data set [4] addresses SsTsr3 (Saccharolobus solfataricus, UniProt Q9UWV6, T17D). The experiment in a line: biochemical.
Data set [5] addresses T2, SsTsr3 (Sulfolobus solfataricus, UniProt Q9UWV6 1-166).
T2 sequence: T1 sequence (Q9UWV6 1-166)
The data set is described as follows: fluorescence anisotropy. Background: Fluorescence polarisation rises when a labelled molecule tumbles more slowly, as on binding a larger partner.

Sequence of SsTsr3 (Saccharolobus solfataricus, UniProt Q9UWV6, T17A) (Q9UWV6 whole entry T17A): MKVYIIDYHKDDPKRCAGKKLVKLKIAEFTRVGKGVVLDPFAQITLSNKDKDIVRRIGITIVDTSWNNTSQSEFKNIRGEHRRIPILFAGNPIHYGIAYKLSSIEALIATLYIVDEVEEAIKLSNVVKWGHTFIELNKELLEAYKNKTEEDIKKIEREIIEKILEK
Sequence of SsTsr3 (Saccharolobus solfataricus, UniProt Q9UWV6, D63A) (Q9UWV6 whole entry D63A): as the sequence (Q9UWV6 whole entry T17A) above, with A17T, D63A counted along it
Sequence of VdTsr3 (E1QU22 whole entry): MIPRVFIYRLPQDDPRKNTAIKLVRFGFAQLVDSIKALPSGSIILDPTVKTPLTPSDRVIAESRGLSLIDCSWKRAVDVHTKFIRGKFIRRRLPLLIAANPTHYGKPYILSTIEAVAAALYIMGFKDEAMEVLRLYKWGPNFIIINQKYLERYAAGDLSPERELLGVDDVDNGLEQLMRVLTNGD
Sequence of SsTsr3 (Saccharolobus solfataricus, UniProt Q9UWV6, T17D) (Q9UWV6 whole entry T17D): as the sequence (Q9UWV6 whole entry T17A) above, with A17D counted along it

As for `C[S+](CC[C@H](N)C(=O)O)C[C@H]1O[C@@H](n2cnc3c(N)ncnc32)[C@H](O)[C@@H]1O` (stereo partly drawn) [SAM], the Kd on SsTsr3 [1] was 6.5 µM; at SsTsr3 [2], 3900 µM; on SsTsr3 [3], 11 µM; at SsTsr3 [4] it was 11200 µM. For the same molecule, at VdTsr3, the “X-ray crystal structure, 1.6 Å (Se-SAD)” value was “VdTsr3 was purified and crystallized in complex with endogenous (E. coli) SAM”.

The molecule UUUUUUUUU (ssRNA) [oligo-U9 RNA] registered a Kd in the data set with SsTsr3 [5] of 6 µM.

What is called Kd is the constant that tells how readily two partners part at equilibrium. Low values mean a tighter complex, high ones a looser complex.
